Experimental data: patent publication US8372967B2, “Compounds and methods for modulating expression of GCCR” (Isis Pharmaceuticals, Inc., priority 2006, dated 2013)
Strand notation (5' to 3'): a small letter for the sugar, then the base; units joined by * are phosphorothioate-linked, units joined directly phosphodiester-linked; [ ] holds rarer units or linkages, { } end groups; capitals alone tell only the bases. e = 2'-O-(2-methoxyethyl) (MOE); [5mC] = 5-methylcytosine; d = 2'-deoxy (DNA)

What was measured:
[1] = test system: PTP1B mRNA; test: Dose response for human PTP1B in HuVEC cells, PPS 198 and PPS 3000 (Tables 86, 87); assay type: cell-based
Method: Human vascular endothelial (HuVEC) cells were plated at a density of 5000 cells per well and treated as described herein with nM concentrations of short antisense compound as indicated in Table 86. After the treatment period, RNA was isolated from the cells and PTP1B mRNA levels were measured by quantitative real-time PCR, as described herein. PTP1B mRNA levels were adjusted according to total RNA content as measured by RIBOGREEN®. Two different human PTP1B primer probe sets were used to measure mRNA levels. Results with Primer Probe Set (PPS) 198 are shown in Table 86, and results with Primer Probe Set (PPS) 3000 are shown in Table 87. Results are presented as percent inhibition of PTP1B mRNA expression relative to untreated control cells.

[2] = test system: PCSK9 mRNA; assay type: cell-based, human; conditions: Hep3B cells, 100 nM, relative to untreated control cells; for % Inhib: 0 = no reduction observed
Method: When cells reached appropriate confluency, they were treated with oligonucleotide using LIPOFECTIN® as described. […] Cells were treated and data were obtained in duplicate or triplicate. […] Cells were harvested 16-24 hours after oligonucleotide treatment.
Prior to quantitative PCR analysis, primer-probe sets specific to the target gene being measured were evaluated for their ability to be “multiplexed” with a GAPDH amplification reaction. After isolation the RNA is subjected to sequential reverse transcriptase (RT) reaction and real-time PCR, both of which are performed in the same well. RT and PCR reagents were obtained from Invitrogen Life Technologies (Carlsbad, Calif.). […] The RT reaction was carried out by incubation for 30 minutes at 48° C. Following a 10 minute incubation at 95° C. to activate the PLATIN 9M® Taq, 40 cycles of a two-step PCR protocol were carried out: 95° C. for 15 seconds (denaturation) followed by 60° C. for 1.5 minutes (annealing/extension).
170 μL of RiboGreen® working reagent (RiboGreen® reagent diluted 1:350 in 10 mM Tris-HCl, 1 mM EDTA, pH 7.5) was pipetted into a 96-well plate containing 30 μL purified cellular RNA. The plate was read in a CytoFluor® 4000 (PE Applied Biosystems) with excitation at 485 nm and emission at 530 nm.
Short antisense compounds targeted to a PCSK9 nucleic acid were tested for their effects on PCSK9 mRNA in vitro. The Isis No, gapmer motif and SEQ ID NO of each short antisense compound are shown again in Table 75. Cultured Hep3B cells were treated with 100 nM of short antisense compound. 5-10-5 MOE gapmers targeted to a PCSK9 nucleic acid were used as positive controls. After the treatment period, RNA was isolated from the cells and PCSK9 mRNA levels were measured by quantitative real-time PCR, as described herein. PCSK9 mRNA levels were adjusted according to total RNA content as measured by RIBOGREEN®. Results are presented in Table 75 as percent inhibition of PCSK9 (% Inhib), relative to untreated control cells.

Row | Substance | % Inhibition ([1]; PPS 198, 1.11 nM) [%] | % Inhibition ([1]; PPS 198, 3.33 nM) [%] | % Inhibition ([1]; PPS 198, 10.0 nM) [%] | % Inhibition ([1]; PPS 198, 30.0 nM) [%] | % Inhibition ([1]; PPS 3000, 1.11 nM) [%] | % Inhibition ([1]; PPS 3000, 3.33 nM) [%] | % Inhibition ([1]; PPS 3000, 10.0 nM) [%] | % Inhibition ([1]; PPS 3000, 30.0 nM) [%] | % Inhib [2] [%] | % Inhibition Range [2]
1 | 398105 (eT*eG*d[5mC]*dA*d[5mC]*dA*dG*dG*d[5mC]*dA*dG*dG*eT*eT) [compound 398105] | 0 | 25 | 79 | 90 | 0 | 35 | 79 | 93 | – | –
2 | 398112 (e[5mC]*eA*dG*d[5mC]*d[5mC]*dT*dG*dG*d[5mC]*dA*d[5mC]*d[5mC]*eT*eA) [compound 398112] | 1 | 10 | 73 | 93 | 0 | 26 | 77 | 94 | – | –
3 | 398120 (eG*eT*dT*d[5mC]*dA*dA*dG*d[5mC]*dG*dG*d[5mC]*d[5mC]*eT*eA) [compound 398120] | 0 | 31 | 80 | 96 | 0 | 35 | 79 | 93 | – | –
4 | 398173 (e[5mC]*dA*dG*d[5mC]*d[5mC]*dT*dG*dG*dG*d[5mC]*dA*e[5mC]) [compound 398173] | 0 | 4 | 80 | 97 | 0 | 18 | 80 | 90 | – | –
5 | 399096 (eT*eG*d[5mC]*dT*d[5mC]*dG*dA*dA*d[5mC]*dT*d[5mC]*d[5mC]*eT*eT; antisense) [compound 399096] | 3 | 30 | 78 | 96 | 0 | 23 | 75 | 94 | – | –
6 | 399102 (eG*eA*dA*dG*dT*d[5mC]*dA*d[5mC]*dT*dG*dG*d[5mC]*eT*eT; antisense) [compound 399102] | 0 | 15 | 62 | 88 | 0 | 9 | 60 | 87 | – | –
7 | 399113 (eG*eT*dT*dA*dG*dG*d[5mC]*dA*dA*dA*dG*dG*eG*e[5mC]; antisense) [compound 399113] | 0 | 31 | 72 | 90 | 0 | 9 | 65 | 90 | – | –
8 | 399132 (eG*eG*dG*d[5mC]*dT*dG*dA*dG*dT*dG*dA*d[5mC]*e[5mC]*e[5mC]; antisense) [compound 399132] | 0 | 32 | 75 | 95 | 0 | 26 | 76 | 91 | – | –
9 | 400344 (antisense eG*eG*dG*dT*dG*d[5mC]*dT*dG*dG*dG*dG*dG*eG*e[5mC]) [compound 400344] | – | – | – | – | – | – | – | – | 0 | –
10 | 400345 (antisense eT*eG*dG*dG*dT*dG*d[5mC]*dT*dG*dG*dG*dG*eG*eG) [compound 400345] | – | – | – | – | – | – | – | – | 0 | –
11 | 400346 (antisense eG*eA*dG*d[5mC]*dA*dG*d[5mC]*dT*d[5mC]*dA*dG*d[5mC]*eA*eG) [compound 400346] | – | – | – | – | – | – | – | – | 5 | –
12 | 400347 (antisense eG*eG*dA*dG*d[5mC]*dA*dG*d[5mC]*dT*d[5mC]*dA*dG*e[5mC]*eA) [compound 400347] | – | – | – | – | – | – | – | – | 0 | –
13 | 400348 (antisense eT*eG*dG*dA*dG*d[5mC]*dA*dG*d[5mC]*dT*d[5mC]*dA*eG*e[5mC]) [compound 400348] | – | – | – | – | – | – | – | – | 0 | –
14 | 400349 (antisense e[5mC]*eT*dG*dG*dA*dG*d[5mC]*dA*dG*d[5mC]*dT*d[5mC]*eA*eG) [compound 400349] | – | – | – | – | – | – | – | – | 13 | 10-20%
15 | 400350 (antisense e[5mC]*e[5mC]*d[5mC]*dT*d[5mC]*dA*d[5mC]*d[5mC]*d[5mC]*d[5mC]*d[5mC]*dA*eA*eA) [compound 400350] | – | – | – | – | – | – | – | – | 15 | 10-20%
16 | 400351 (antisense eA*e[5mC]*d[5mC]*d[5mC]*dT*d[5mC]*dA*d[5mC]*d[5mC]*d[5mC]*d[5mC]*d[5mC]*eA*eA) [compound 400351] | – | – | – | – | – | – | – | – | 14 | 10-20%
17 | 400354 (antisense eG*eA*d[5mC]*dA*d[5mC]*d[5mC]*d[5mC]*dT*d[5mC]*dA*d[5mC]*d[5mC]*e[5mC]*e[5mC]) [compound 400354] | – | – | – | – | – | – | – | – | 19 | 10-20%
